Measured values reported in a melting point compilation (Tetko et al.).

Row | SMILES | melting point [°C]
1 | Nc1nc2cc(Cl)ccc2s1 | 197 to 199
2 | O=c1ccccn1CCOc1ccc(Br)cc1 | 111 to 113
3 | CC1(c2ccc(S(C)(=O)=O)cc2)NC(=O)NC1=O (stereo unspecified) | 228 to 230
4 | Nc1cc(Br)ccc1O | 127 to 129
5 | O=C(CCl)c1cc([N+](=O)[O-])c[nH]1 | 199 to 201
6 | CC(=O)c1ccc(F)cc1N(C)C | 57 to 59
7 | Cc1cccc(Cc2cnc(N)s2)c1 | 100 to 102
8 | CC(=O)Nc1nc(CCl)cs1 | 159 to 161
9 | OCc1cc(C23CC4CC(CC(C4)C2)C3)n[nH]1 | 159 to 161
10 | Cc1cc(N)n(-c2nc3ccccc3[nH]2)n1 | 203 to 205
11 | O=c1[nH]c(S)nc2scc(-c3ccc(F)cc3)c12 | 200 to 202
12 | CCOCCCNC(N)=S | 84 to 86
13 | CS(=O)(=O)c1snc(O)c1C#N | 235 to 237
14 | Cc1cnc2ccccc2c1N | 139 to 141
15 | CN(C)C(=O)COc1ccc(N)c(F)c1 | 106 to 108
16 | CCc1ccc(N)cc1S(N)(=O)=O | 136 to 138
17 | Cc1cc(N)nn1-c1ccccc1 | 79 to 81
18 | OC(c1ccc(Cl)cc1)C1CCNCC1 (stereo unspecified) | 139 to 141
19 | Cc1c[nH]c(=O)n1-c1ccccc1N | 194 to 196
20 | ClCc1cc(Cl)cc2c1OCC2 | 46 to 48
21 | N#Cc1c(OCCCO)n[nH]c1N | 155 to 157

Row | SMILES | melting point [°C]
22 | ClCc1coc(-c2cccc(Cl)c2)n1 | 76 to 78
23 | Cn1cc(COc2ccc(O)cc2)cn1 | 186 to 188
24 | Cc1cn2nc(N)c3ccccc3c2n1 | 216 to 218
25 | Nc1cc(F)ccc1N1CC(C(F)(F)F)OC1=O (stereo unspecified) | 119 to 121
26 | O=C1Nc2ccc(-c3ccccc3)cc2C1=O | 214 to 216
27 | Cc1ccc(C(=O)c2ccccc2Cl)cc1 | 90 to 92
28 | COc1cc(C=O)ccc1OC(=O)c1ccc(F)cc1 | 100 to 102
29 | N#Cc1c(F)cccc1-n1ccc(N)n1 | 134 to 136
30 | O=[N+]([O-])c1cc(Br)cc(S(=O)(=O)Cl)c1 | 47 to 49
31 | N#CCc1c[nH]c2ccc(Br)cc12 | 103 to 105
32 | Nc1nnc(-c2ccsc2)s1 | 211 to 213
33 | Nc1ccc(-c2cc[nH]n2)cc1 | 99 to 101
34 | N#Cc1ccc2c(c1)CCO2 | 64 to 66
35 | Nc1nc2nc(-c3ccccc3)cc(C(F)(F)F)c2s1 | 234 to 236
36 | O=Cc1nccc2ccccc12 | 51 to 53
37 | Nc1nnnn1-c1ccccc1 | 159 to 161
38 | Cc1nc(=O)cc[nH]1 | 213 to 215
39 | COC(=O)c1cc(OC)c(OC(F)F)cc1[N+](=O)[O-] | 96 to 98
40 | OC1CCCCC1c1ccc(Cl)cc1 (stereo unspecified) | 83 to 85
41 | O=C(CC(=O)Nc1cc(Cl)ccc1Cl)Nc1cc(Cl)ccc1Cl | 226 to 228
42 | Cc1ccc2c(C3CCNCC3)c[nH]c2c1 | 176 to 178

Row | SMILES | melting point [°C]
43 | Cc1nn(C(C)C)c(C)c1N | 58 to 60
44 | Cc1ccc(C)c(-n2cnc(O)n2)c1 | 166 to 168
45 | N#CCCOc1ccccc1 | 58 to 61
46 | Cc1nc(N)n(-c2ccccc2)n1 | 131 to 133
47 | Cc1ncc(-c2ccccc2)cc1N | 139 to 141
48 | NCCCc1nc(C2CC2)n[nH]1 | 207 to 209
49 | O=Cc1ccc(-c2ccc(Cl)cc2)s1 | 83 to 87
50 | Cc1ccc(Cl)cc1C(N)=O | 150 to 152
51 | N#Cc1cc(F)ccc1N | 92 to 96
52 | NC(=O)N1CCC(=O)CC1 | 137 to 139
53 | Cc1cc(C)cc(Oc2ccc(N)cc2)c1 | 55 to 57
54 | ON=Cc1cccc(OCc2ccncc2)c1 | 177 to 179
55 | NC(=O)c1cccc(C=O)c1 | 108 to 110
56 | COc1ccc(Nc2ccccc2)cc1 | 104 to 106
57 | COc1ccnc(N2CCNCC2)c1 | 36 to 38
58 | Nc1nc(-c2cc(Br)cs2)cs1 | 149 to 151
59 | Cc1nc2ccccc2n1CCO | 147 to 149
60 | CC1(c2ccc(Br)cc2)CC(=O)OC1=O (stereo unspecified) | 69 to 71
61 | Nc1cccc(CS(=O)(=O)c2ccccc2)c1 | 132 to 134

Other lines, results leading:

Row | melting point [°C] | SMILES
62 | 59 to 61 | COCCCS(=O)(=O)NCC(=O)O
63 | 185 to 187 | Cc1nc(COc2ccc(/C=C/C(=O)O)cc2)cs1
64 | 170 to 172 | O=Cc1cc(Br)ccc1OCC(=O)O
65 | 250 to 252 | CCc1ccc(Nc2nnc(SCC(=O)O)s2)cc1
66 | 132 to 134 | CC(C)(C)OC(=O)NCC1CCC(C(=O)O)CC1 (stereo unspecified)
67 | 76 to 78 | CSc1cccc(NC2CCN(C)CC2)c1
68 | 98 to 100 | O=C(O)CCS(=O)(=O)C1CCCC1
69 | 133 to 135 | CC(C)(C)OC(=O)N1C(C(=O)O)CC2CCCCC21 (stereo unspecified)
70 | 157 to 159 | CC(C)(C)OC(=O)Nc1ccc(N)cn1
71 | 93 to 95 | Cc1ccc(C(C)C)c(OCCC(=O)O)c1
72 | 195 to 197 | O=C(O)COc1ccc(-c2ccccc2)cc1
73 | 149 to 151 | NS(=O)(=O)N1CCc2ccccc21
74 | 186 to 188 | O=C(NC1CCC(O)CC1)C(F)(F)F (stereo unspecified)
75 | 63 to 65 | COc1cc(C)c(CSCC(=O)O)cc1OC
76 | 155 to 159 | Cn1c(SCC(=O)O)nc2ccccc21
77 | 129 to 131 | O=C(O)c1noc(-c2ccc(F)cc2)n1
78 | 135 to 137 | COc1cccc(Nc2nnc(SCC(=O)O)s2)c1
79 | 129 to 131 | CC(C)CC1CCC(=O)NC1=O (stereo unspecified)
80 | 66 to 68 | CCOC(=O)C(=O)CC(=O)c1cccnc1
81 | 130 to 132 | O=C(O)c1nnn(-c2cccc(F)c2)c1C(F)(F)F
82 | 203 to 205 | O=C(O)CSc1nncn1C1CC1
83 | 232 to 234 | Cc1cc(C(=O)O)c2c(Br)cccc2n1

Row | melting point [°C] | SMILES
84 | 76 to 78 | N#CCN1CCC(O)CC1
85 | 176 to 178 | Cc1noc(C)c1S(=O)(=O)NC1(C(=O)O)CCCC1
86 | 62 to 64 | CCOc1ccc(C(=O)C(C)Cl)cc1 (stereo unspecified)
87 | 162 to 164 | COc1ccc(-c2nc(CC(=O)O)cs2)cc1OC
88 | 119 to 121 | CCCOc1cn(-c2ccccc2)nc1C(=O)O
89 | 114 to 116 | Cc1ccc(F)c(N)c1C(=O)O
90 | 259 to 261 | CCCC(C)C(N)C(=O)O (stereo unspecified)
91 | 130 to 132 | CC1=C(C(=O)O)CCC1
92 | 41 to 43 | CCN(C)c1ccc(C(C)=O)cc1
93 | 150 to 152 | O=C(O)CNS(=O)(=O)c1ccc(Cl)c([N+](=O)[O-])c1
94 | 108 to 110 | O=C(CBr)c1ccc(S(=O)(=O)N2CCCCC2)cc1
95 | 67 to 69 | CC1(C)CC(=O)CC(C)(C)N1C(=O)CCl
96 | 187 to 189 | Cc1n[nH]c(C)c1S(=O)(=O)N1CCN(C)CC1
97 | 99 to 101 | CN1CC(=O)NC(=O)C1
98 | 90 to 92 | NC(=O)CNCc1ccccc1
99 | 219 to 221 | CC(C)(C)n1nc[nH]c1=O
100 | 57 to 59 | O=C(c1ccccc1)C1CCOCC1
101 | 188 to 190 | O=C1CS/C(=C/C(=O)C2CC2)N1
102 | 98 to 100 | O=C(O)c1cccc(S(=O)(=O)N2CCCc3ccccc32)c1
103 | 126 to 128 | NS(=O)(=O)N1CCC(OC(=O)C(F)(F)F)CC1
104 | 82 to 84 | O=C(O)c1cccc(C2CCCOC2)c1 (stereo unspecified)
105 | 174 to 176 | N#Cc1ccccc1Oc1ccc(C(=O)O)cc1Cl

Row | melting point [°C] | SMILES
106 | 80 to 82 | CC(C)(CC(=O)O)CC(=O)N1CCOCC1
107 | 105 to 107 | CC(NS(=O)(=O)c1ccccc1C(F)(F)F)C(=O)O (stereo unspecified)
108 | 103 to 105 | CC(Cl)C(=O)NC12CC3CC(CC(C3)C1)C2 (stereo unspecified)
109 | 255 to 257 | CC(CC(=O)O)C1CCNCC1 (stereo unspecified)
110 | 72 to 74 | NNC(=O)CCc1ccco1
111 | 250 to 252 | N#Cc1cc(C(=O)O)c(N)[nH]c1=O
112 | 242 to 244 | Cc1cc(C(=O)O)ccc1-n1cncn1
113 | 141 to 145 | O=C(O)c1nn(-c2ccccc2C(F)(F)F)cc1O
114 | 165 to 167 | NC(=O)CC1CCCCC1
115 | 102 to 104 | COc1ccc(C2CCN2S(=O)(=O)c2ccc(C)cc2)cc1 (stereo unspecified)
116 | 140 to 143 | COc1ccc(-c2nnc(SCC(=O)O)o2)cc1
117 | 309 to 311 | O=C(O)c1ccc(C(=O)Nc2ccccc2)cc1
118 | 103 to 105 | COC(=O)CNC(=O)c1cccc(N)c1
119 | 159 to 161 | Cc1cccc(Nc2nnc(SCC(=O)O)s2)c1C
120 | 66 to 68 | O=C(NCCCCl)C1CCCC1
121 | 163 to 165 | CN(C)CCc1ccc(C(=O)O)cc1
122 | 124 to 126 | CC(C)(C)OC(=O)N1CCC(OC(=O)c2cccc(N)c2)CC1
123 | 181 to 183 | O=C(O)c1c(Cl)nc2sccn12
124 | 203 to 205 | O=C(O)CN1C(=O)c2ccccc2C(F)(F)C1=O
125 | 194 to 196 | COc1ccc(CCNC(C)=O)cc1S(N)(=O)=O
126 | 163 to 165 | CC(Cl)C(=O)NC1CCCC(C)C1C (stereo unspecified)
127 | 121 to 123 | CN(C)CC(C)(C)CNC(N)=S

Row | melting point [°C] | SMILES
128 | 136 to 138 | Cc1ccc(N(C(=O)CCl)C2C=CS(=O)(=O)C2)cc1C (stereo unspecified)
129 | 131 to 133 | COc1ccc(C)cc1CC(=O)O
130 | 186 to 188 | CCOc1ccc2c(c1)C=C(C(=O)O)CO2
131 | 82 to 84 | COC(=O)c1nsnc1C(=O)O
132 | 154 to 156 | O=C(O)COc1ccc2c(c1)CCC2
133 | 108 to 110 | Nc1ccc(OCC2CCOCC2)cc1
134 | 77 to 79 | CC(C)(C)OC(=O)NC1(CN)CCCCCC1
135 | 179 to 183 | O=C(O)/C(=C\c1ccccc1)c1ccc(Cl)cc1
136 | 197 to 199 | NS(=O)(=O)c1ccc2c(c1)OCCO2
137 | 96 to 98 | CC(NC(=O)CCC(=O)O)C(=O)c1ccccc1 (stereo unspecified)
138 | 306 to 308 | Cc1ccc(/C=C/c2cc(C(=O)O)c3cc(Br)ccc3n2)cc1
139 | 53 to 55 | COCCCC(=O)c1ccc(Br)cc1
140 | 77 to 79 | CC1(C)SC(=O)NC1=O
141 | 115 to 117 | O=C(O)CCOc1ccccc1Cl
142 | 222 to 224 | CC(C)(C)C(=O)Nc1nc(CC(=O)O)cs1
143 | 51 to 53 | CCOC(=O)COc1ccccc1O
144 | 191 to 194 | CCN1CCCC1CNC(=O)C1CCNCC1 (stereo unspecified)
145 | 165 to 167 | COc1ccc(C(=O)CCC(=O)O)c(Cl)c1
146 | 279 to 281 | O=C(O)C1CCN(C2=NS(=O)(=O)c3ccccc32)CC1
